From EPA's ToxRefDB 2 come the findings set out here.

Structures are written as SMILES.

Data set [1] concerns rabbit. The following applies: Prenatal developmental toxicity study, himalayan, Oral, Gavage/Intubation, dose end: 18 GD.
The test system of data set [2] is rat. The following applies: Prenatal developmental toxicity study, wistar, Oral, Gavage/Intubation, dose end: 16 GD.
Data set [3] deals with rat. As to conditions: Multigenerational reproductive toxicity study, wistar, Oral, Feed, dose end: 2 generation.
Data set [4] concerns rat. As to conditions: Prenatal developmental toxicity study, sprague dawley, Oral, Gavage/Intubation, dose end: 15 GD.
Data set [5] relates to rabbit. The following applies: Prenatal developmental toxicity study, new zealand white, Oral, Gavage/Intubation, dose end: 19 GD.
Data set [6] concerns rat. As to conditions: Prenatal developmental toxicity study, other, Oral, Gavage/Intubation, dose end: 15 GD.
The test system of data set [7] is mouse. As to conditions: Prenatal developmental toxicity study, cd1, Oral, Gavage/Intubation, dose end: 15 GD.
The subject of data set [8] is rat. As to conditions: Prenatal developmental toxicity study, sprague dawley, Inhalation, Whole-Body, dose end: 20 GD.
Data set [9] deals with hamster. As to conditions: Prenatal developmental toxicity study, golden syrian, Oral, Gavage/Intubation, dose end: 15 GD.
Data set [10] has as its system rat. The following applies: Subchronic oral toxicity in rodents, sprague dawley, Feed, dose end: 3 month.
In data set [11] the test system is rabbit. As to conditions: Prenatal developmental toxicity study, other, Oral, Gavage/Intubation, dose end: 18 GD.
The test system of data set [12] is rat. As to conditions: Multigenerational reproductive toxicity study, other, Oral, Feed, dose end: 2 generation.
Where [13] appears, read: group: developmental, developmental / developmental malformation / bone / [other] + developmental / developmental malformation / bone / fragmented + developmental….
[14] abbreviates: group: maternal, systemic / in life observation / mortality / mortality + systemic / in life observation / clinical signs / [other] + systemic / in life ….
Setting [15] is: group: developmental, developmental / developmental malformation / bone / bent.
Setting [16] is: group: maternal, systemic / in life observation / body weight / body weight + systemic / in life observation / body weight / body weight gain + systemic / in….
[17] abbreviates: group: offspring, systemic / in life observation / body weight / offspring (pup) weight + systemic / organ weight / spleen / absolute + systemic / organ ….
Setting [18] is: group: parental, systemic / organ weight / spleen / absolute.
Setting [19] is: group: parental, systemic / organ weight / spleen / absolute + systemic / in life observation / body weight / body weight gain + systemic / pathology ….
Setting [20] is: group: reproductive, reproductive / reproductive performance / estrous cycle / abnormal.
Where [21] appears, read: group: developmental, developmental / developmental malformation / bone / fragmented + developmental / developmental malformation / bone / unossified + ….
Setting [22] is: group: maternal, systemic / in life observation / body weight / body weight gain + systemic / in life observation / mortality / mortality + systemic / ….
The mark [23] stands for this setting: group: developmental, developmental / developmental malformation / brain / hydrocephaly + developmental / developmental malformation / bone / domed head.
The mark [24] stands for this setting: group: maternal, reproductive / reproductive performance / postimplantation loss / postimplantation loss + reproductive / reproductive performance / ….
The mark [25] stands for this setting: group: developmental, developmental / developmental malformation / bone / [other] + developmental / developmental malformation / bone / discontinuous.
Setting [26] is: group: developmental, developmental / developmental malformation / bone / [other] + developmental / developmental malformation / bone / discontinuous + ….
Where [27] appears, read: group: maternal, systemic / in life observation / water consumption / water consumption.
Setting [28] is: group: maternal, systemic / in life observation / water consumption / water consumption + systemic / in life observation / body weight / body weight gain + ….
The mark [29] stands for this setting: group: developmental, systemic / in life observation / body weight / fetal weight.
The mark [30] stands for this setting: group: maternal, systemic / in life observation / water consumption / water consumption + systemic / in life observation / clinical signs / altered breathing….
Setting [31] is: group: developmental, systemic / in life observation / body weight / fetal weight + developmental / developmental malformation / bone / incomplete ossification.
Setting [32] is: group: maternal, systemic / in life observation / body weight / body weight gain + systemic / in life observation / food consumption / food consumption.
The mark [33] stands for this setting: group: developmental, developmental / developmental malformation / bone / [other] + developmental / developmental malformation / bone / absent + developmental / ….
Setting [34] is: group: maternal, systemic / in life observation / clinical signs / ataxia + systemic / in life observation / clinical signs / body temperature + systemic / ….
Setting [35] is: group: cholinesterase, cholinesterase / cholinesterase / cholinesterase / cholinesterase (che).
The mark [36] stands for this setting: group: systemic, systemic / hematology / anemia / anemia - hemolytic + systemic / in life observation / body weight / body weight gain + systemic / in life ….
[37] abbreviates: group: systemic, systemic / hematology / blood clotting / blood clotting - activated partial thromboplastin time + systemic / hematology / blood clotting / ….
Where [38] appears, read: group: developmental, developmental / developmental malformation / bone / full supernumerary + systemic / in life observation / body weight / fetal weight.
[39] abbreviates: group: developmental, developmental / developmental malformation / bone / full supernumerary + systemic / in life observation / body weight / fetal weight + ….
[40] abbreviates: group: maternal, systemic / in life observation / body weight / body weight gain + systemic / in life observation / food consumption / food consumption + ….
[41] abbreviates: group: offspring, systemic / in life observation / body weight / offspring (pup) weight.
The mark [42] stands for this setting: group: offspring, systemic / in life observation / body weight / offspring (pup) weight + developmental / developmental malformation / bone / extra ….
[43] abbreviates: group: parental, systemic / pathology microscopic / spleen / hemosiderosis.
Setting [44] is: group: parental, systemic / pathology microscopic / spleen / hemosiderosis + systemic / in life observation / body weight / body weight gain + systemic / in ….

Turning to `CCOC(=O)C1=NOC(c2ccccc2)(c2ccccc2)C1` [Isoxadifen-ethyl], the LEL in [1] (setting [13]) amounted to 500 mg/kg/day; in [1] (setting [14]), 500 mg/kg/day; in data set [2] (setting [15]) it was 120 mg/kg/day; in data set [2] (setting [16]), 1000 mg/kg/day. For the same molecule, the LOAEL worked out at 500 mg/kg/day in [1] (setting [13]); 500 mg/kg/day in data set [1] (group: maternal, systemic / in life observation / mortality / mortality); 120 mg/kg/day in data set [2] (setting [15]); 1000 mg/kg/day in [2] (setting [16]). The NEL in data set [1] (setting [13]) worked out at 50 mg/kg/day; in [1] (setting [14]) it was 50 mg/kg/day; in data set [2] (setting [15]), 15 mg/kg/day; in data set [2] (setting [16]) it was 120 mg/kg/day. The NOAEL is 50 mg/kg/day in data set [1] (setting [13]), 50 mg/kg/day in data set [1] (setting [14]), 15 mg/kg/day in data set [2] (setting [15]) and 120 mg/kg/day in [2] (setting [16]).

As to `Cc1cc(C)c(C2=C(OC(=O)CC(C)(C)C)C3(CCCC3)OC2=O)c(C)c1` [Spiromesifen], in [3] (setting [17]), the LEL turned out to be 13.2 mg/kg/day, the LOAEL is 13.2 mg/kg/day, the NEL worked out at 3.3 mg/kg/day and the NOAEL amounted to 3.3 mg/kg/day. Moreover, in data set [3] (setting [18]), the LEL came to 13.2 mg/kg/day and the lowest-observed-adverse-effect level (LOAEL) came out at 13.2 mg/kg/day. Besides, in data set [3] (setting [19]), the NEL is 3.3 mg/kg/day and the no observed adverse effect level (NOAEL) stood at 3.3 mg/kg/day. In data set [3] (setting [20]), this molecule came in with an LEL of 18 mg/kg/day, an LOAEL of 18 mg/kg/day, an NEL of 4.6 mg/kg/day and an NOAEL of 4.6 mg/kg/day.

On to `[Li+].[O-]Cl` [Lithium hypochlorite], for which, in [4] (setting [21]), the lowest-observed-adverse-effect level (LOAEL) came out at 500 mg/kg/day, the NEL was determined as 10 mg/kg/day and the no-observed-adverse-effect level (NOAEL) turned out to be 100 mg/kg/day. Besides, the LEL in [4] (group: developmental, developmental / developmental malformation / bone / kinked + developmental / developmental malformation / bone / thread-like + developmental…) amounted to 50 mg/kg/day. In addition, in data set [4] (setting [22]), the LEL was 500 mg/kg/day, the LOAEL was 500 mg/kg/day, the NEL is 100 mg/kg/day and the NOAEL is 100 mg/kg/day.

On to `O=c1[nH]c(=O)[nH]c(=O)[nH]1` [Cyanuric acid], for which, in data set [5] (group: developmental, developmental / developmental malformation / brain / hydrocephaly), the LOAEL was 500 mg/kg/day. Moreover, in data set [5] (setting [23]), the LEL is 500 mg/kg/day, the NEL amounted to 200 mg/kg/day and the NOAEL stood at 200 mg/kg/day. Besides, in [5] (setting [24]), the LEL was found to be 500 mg/kg/day, the LOAEL was over 500 mg/kg/day, the NEL is 200 mg/kg/day and the no-observed-adverse-effect level (NOAEL) is at least 500 mg/kg/day.

With `OCCOCCO` [Diethylene glycol], the LEL in data set [6] (setting [25]) was 4470 mg/kg/day; in data set [6] (setting [27]) it was 4470 mg/kg/day; in data set [7] (setting [29]), 11200 mg/kg/day; in data set [7] (setting [27]), 2800 mg/kg/day. In addition, the LOAEL in data set [6] (setting [25]) came out at 4470 mg/kg/day; in [6] (setting [27]) it was 4470 mg/kg/day; in data set [7] (setting [29]), 11200 mg/kg/day; in data set [7] (setting [27]) it was 2800 mg/kg/day. Also, the NEL in data set [6] (setting [26]) is 1120 mg/kg/day; in data set [6] (setting [28]), 1120 mg/kg/day; in [7] (setting [29]) it was 2800 mg/kg/day; in [7] (setting [30]), 559 mg/kg/day. The NOAEL in data set [6] (setting [26]) came out at 1120 mg/kg/day; in data set [6] (setting [28]), 1120 mg/kg/day; in [7] (setting [29]), 2800 mg/kg/day; in [7] (setting [30]) it was 559 mg/kg/day.

In data set [8] (setting [29]), `Cc1cc(C)cc(C)c1` [1,3,5-Trimethylbenzene] came in with an LEL of 600 ppm and an LOAEL of 600 ppm. In [8] (setting [31]), the NEL amounted to 300 ppm and the NOAEL was found to be 300 ppm. For the same molecule, in [8] (setting [32]), the LEL came out at 300 ppm, the LOAEL was determined as 300 ppm, the NEL came to 100 ppm and the NOAEL stood at 100 ppm.

In the case of `CC(C)(C#N)O[C@@H]1O[C@H](CO)[C@@H](O)[C@H](O)[C@H]1O` [Linamarin], in [9] (setting [33]), the LOAEL was over 140 mg/kg/day, the NEL was 100 mg/kg/day and the NOAEL is at least 140 mg/kg/day. Also, the LEL in data set [9] (group: developmental, developmental / developmental malformation / bone / absent + developmental / developmental malformation / bone / meningoencephalocele) turned out to be 120 mg/kg/day. In data set [9] (setting [34]), the LEL is 100 mg/kg/day, the LOAEL was over 140 mg/kg/day, the NEL came to 70 mg/kg/day and the NOAEL is at least 140 mg/kg/day.

On to `C#CCN1CC(=O)N(COC(=O)C2C(C=C(C)C)C2(C)C)C1=O` (stereo not given) [Imiprothrin], for which the LEL is 399 mg/kg/day in [10] (setting [35]); 5.9 mg/kg/day in [10] (setting [37]); 100 mg/kg/day in data set [11] (setting [38]); 100 mg/kg/day in data set [11] (setting [40]); 369 mg/kg/day in [12] (setting [42]); 144 mg/kg/day in data set [12] (setting [43]). The LOAEL in data set [10] (setting [35]) was over 657 mg/kg/day; in data set [10] (setting [36]), 179 mg/kg/day; in data set [11] (setting [38]), 100 mg/kg/day; in data set [11] (setting [32]), 100 mg/kg/day; in data set [12] (setting [42]), 369 mg/kg/day; in data set [12] (setting [43]), 144 mg/kg/day. Moreover, the NEL in data set [10] (setting [35]) was 197 mg/kg/day; in data set [10] (setting [37]) it was under 5.9 mg/kg/day; in data set [11] (setting [39]) it was 30 mg/kg/day; in [11] (setting [40]), 30 mg/kg/day; in [12] (setting [41]), 126 mg/kg/day; in data set [12] (setting [44]), 14.7 mg/kg/day. Further, the no observed adverse effect level (NOAEL) in data set [10] (setting [35]) is at least 657 mg/kg/day; in data set [10] (setting [36]) it was 5.9 mg/kg/day; in [11] (setting [39]), 30 mg/kg/day; in [11] (setting [40]) it was 30 mg/kg/day; in [12] (setting [41]) it was 126 mg/kg/day; in data set [12] (setting [44]), 14.7 mg/kg/day.
